Reference: patent US20250171437A1 (Agios Pharmaceuticals,Inc., priority 2022, published 2025)

Biological target: T1, human PAH with the R408W mutation (A375 R408W cells) (Homo sapiens, UniProt P00439, R408W)
T1 construct: expressed in transfected cells
T1 sequence (P00439 1-452 R408W): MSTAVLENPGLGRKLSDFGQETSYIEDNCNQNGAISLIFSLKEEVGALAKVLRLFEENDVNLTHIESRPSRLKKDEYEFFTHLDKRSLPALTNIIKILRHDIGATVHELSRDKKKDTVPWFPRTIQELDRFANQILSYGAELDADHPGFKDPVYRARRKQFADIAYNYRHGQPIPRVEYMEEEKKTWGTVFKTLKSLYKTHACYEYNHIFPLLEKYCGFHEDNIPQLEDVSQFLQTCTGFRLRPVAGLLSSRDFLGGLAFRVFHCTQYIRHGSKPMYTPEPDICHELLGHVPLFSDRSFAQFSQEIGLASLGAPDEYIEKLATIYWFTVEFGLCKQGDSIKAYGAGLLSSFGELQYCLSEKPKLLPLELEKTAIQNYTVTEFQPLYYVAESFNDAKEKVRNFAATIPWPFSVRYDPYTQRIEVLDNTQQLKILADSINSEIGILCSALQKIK
Test: Cell Based Phenylalanine Flux Assay
Conditions: A375 R408W cells; 24 hrs with compound, then 20 μM sepiapterin and 800 μM 13C9,15N-Phenylalanine for 4 hours; 13C-Tyrosine by LC-MS; average where tested multiple times
Protocol: Cells expressing R408W PAH were made by transducing A375 cells with lentivirus encoding human PAH with the R408W mutation in pLVX-Puro, then selecting with puromycin until stable cell lines were generated. A375 R408W cells were seeded into 96 well plates in DMEM+10% FBS at a density of 40,000 cells/well one hour prior to compound addition. Compounds were resuspended in DMSO, and 2-fold serial dilutions were performed to generate a 10-point dose curve. Compounds were added to plated cells in a total volume of 100 μl, and a final DMSO concentration of 0.5%. Each compound was tested in duplicate. Following compound addition, cells were placed in a 5% CO2, 37° C. tissue culture incubator for 24 hrs. After the incubation period, 20 μM sepiapterin and 800 μM 13C9,15N-Phenylalanine were added. After 4 hours, cell media was removed. An aliquot of 10 μl of cell media was combined with 200 μl of extraction buffer (80% acetonitrile/20% H2O) for each well. Determination of ^13C-Tyrosine concentration was assessed by liquid chromatography mass spectrometry.
Specific compounds disclosed herein were tested in the foregoing assay and they were determined to have an AC50 according to the following scores: (A) less than or equal to 0.500 μM, (B) greater than 0.500 and less than […], (C) greater than or equal to 1.000 and less than 5.000 μM, (D) greater than or equal to 5.000 μM, (E) no fit, and (NT) not tested, as shown below. Where a compound was tested multiple times, the average value of the tests is reported.

SMILES	AC50
Cc1ccc(F)c2nc([C@H]3c4nc[nH]c4CCN3C(=O)c3ocnc3C(F)F)oc12 [Example 744, (R)-(4-(difluoromethyl)oxazol-5-yl)(4-(4-fluoro-7-methylbenzo[d]oxazol-2-yl)-6,7-dihydro-1H-imidazo[4,5-c]pyridin-5(4H)-yl)methanone]	≤ 500 nM
O=C(c1ccnn1C(F)F)N1CCc2[nH]cnc2[C@H]1c1nc2cc(F)ccc2o1 [Example 93, (S)-(1-(difluoromethyl)-1H-pyrazol-5-yl)(4-(5-fluorobenzo[d]oxazol-2-yl)-6,7-dihydro-1H-imidazo[4,5-c]pyridin-5(4H)-yl)methanone]	500 to 1000 nM
Cc1cccc2oc([C@@H]3c4nc[nH]c4CCN3C(=O)c3oc(C(C)(C)O)nc3C(F)F)nc12 [Example 361, (S)-(4-(difluoromethyl)-2-(2-hydroxypropan-2-yl)oxazol-5-yl)(4-(4-methylbenzo[d]oxazol-2-yl)-6,7-dihydro-1H-imidazo[4,5-c]pyridin-5(4H)-yl)methanone]	≤ 500 nM
Cc1cc(C(=O)N2CCc3[nH]cnc3[C@H]2c2nc3cccc(C)c3o2)n(C)n1 [Example 781, (S)-(1,3-dimethyl-1H-pyrazol-5-yl)(4-(7-methylbenzo[d]oxazol-2-yl)-6,7-dihydro-1H-imidazo[4,5-c]pyridin-5(4H)-yl)methanone]	≤ 500 nM
Cc1ccc2oc([C@H]3c4nc[nH]c4CCN3C(=O)c3nnc(-c4ccc(F)cn4)o3)nc2c1 [Example 100, (R)-(5-(5-fluoropyridin-2-yl)-1,3,4-oxadiazol-2-yl)(4-(5-methylbenzo[d]oxazol-2-yl)-6,7-dihydro-1H-imidazo[4,5-c]pyridin-5(4H)-yl)methanone]	1000 to 5000 nM

More lines, now with the values ahead:

AC50	SMILES
≤ 500 nM	Cc1ccc(F)c2oc([C@@H]3c4nc[nH]c4CCN3C(=O)c3ocnc3C(F)F)nc12 [Example 898, (S)-(4-(difluoromethyl)oxazol-5-yl)(4-(7-fluoro-4-methylbenzo[d]oxazol-2-yl)-6,7-dihydro-1H-imidazo[4,5-c]pyridin-5(4H)-yl)methanone]
500 to 1000 nM	CC(C)(C)c1nnc(C(=O)N2CCc3[nH]cnc3[C@@H]2c2nc3c(F)ccc(F)c3o2)o1 [Example 851, (R)-(5-(tert-butyl)-1,3,4-oxadiazol-2-yl)(4-(4,7-difluorobenzo[d]oxazol-2-yl)-6,7-dihydro-1H-imidazo[4,5-c]pyridin-5(4H)-yl)methanone]
1000 to 5000 nM	Cc1nc(C(C)(C)C#N)oc1C(=O)N1CCc2[nH]cnc2[C@@H]1c1nc2cc(F)ccc2o1 [Example 186, (R)-2-(5-(4-(5-fluorobenzo[d]oxazol-2-yl)-4,5,6,7-tetrahydro-1H-imidazo[4,5-c]pyridine-5-carbonyl)-4-methyloxazol-2-yl)-2-methylpropanenitrile]
≥ 5000 nM	O=C(c1cnn2cc(N3CCN(C4CC4)CC3)ccc12)N1CCc2[nH]cnc2[C@@H]1c1nc2cc(F)ccc2o1 [Example 134, (R)-(6-(4-cyclopropylpiperazin-1-yl)pyrazolo[1,5-a]pyridin-3-yl)(4-(5-fluorobenzo[d]oxazol-2-yl)-6,7-dihydro-1H-imidazo[4,5-c]pyridin-5(4H)-yl)methanone]
1000 to 5000 nM	O=C(c1cnc(-c2ccccn2)o1)N1CCc2[nH]cnc2[C@@H]1c1nc2ccc(Br)cc2o1 [Example 8, (R)-(4-(6-bromobenzo[d]oxazol-2-yl)-6,7-dihydro-1H-imidazo[4,5-c]pyridin-5(4H)-yl)(2-(pyridin-2-yl)oxazol-5-yl)methanone]
1000 to 5000 nM	COc1cccc2oc([C@H]3c4nc[nH]c4CCN3C(=O)c3nnc(-c4cnn(C)c4)o3)nc12 [Example 625, (R)-(4-(4-methoxybenzo[d]oxazol-2-yl)-6,7-dihydro-1H-imidazo[4,5-c]pyridin-5(4H)-yl)(5-(1-methyl-1H-pyrazol-4-yl)-1,3,4-oxadiazol-2-yl)methanone]
1000 to 5000 nM	Cc1ccc2nc([C@H]3c4nc[nH]c4CCN3C(=O)c3nnc(-c4ccn(C)n4)o3)oc2c1 [Example 358, (R)-(5-(1-methyl-1H-pyrazol-3-yl)-1,3,4-oxadiazol-2-yl)(4-(6-methylbenzo[d]oxazol-2-yl)-6,7-dihydro-1H-imidazo[4,5-c]pyridin-5(4H)-yl)methanone]
≤ 500 nM	O=C(c1ocnc1C(F)F)N1CCc2[nH]cnc2[C@H]1c1nc2c(Cl)cccc2o1 [Example 437, [(4S)-4-(4-chloro-1,3-benzoxazol-2-yl)-1,4,6,7-tetrahydroimidazo[4,5-c]pyridin-5-yl]-[4-(difluoromethyl)oxazol-5-yl]methanone]
1000 to 5000 nM	Cn1cnc(-c2nnc(C(=O)N3CCc4[nH]cnc4[C@@H]3c3nc4c(F)ccc(F)c4o3)o2)c1 [Example 818, (R)-(4-(4,7-difluorobenzo[d]oxazol-2-yl)-6,7-dihydro-1H-imidazo[4,5-c]pyridin-5(4H)-yl)(5-(1-methyl-1H-imidazol-4-yl)-1,3,4-oxadiazol-2-yl)methanone]
500 to 1000 nM	Cn1nc(C(F)F)nc1C(=O)N1CCc2[nH]cnc2[C@H]1c1nc2cc(F)cc(F)c2o1 [Example 577, (S)-(4-(5,7-difluorobenzo[d]oxazol-2-yl)-6,7-dihydro-1H-imidazo[4,5-c]pyridin-5(4H)-yl)(3-(difluoromethyl)-1-methyl-1H-1,2,4-triazol-5-yl)methanone]
500 to 1000 nM	O=C(c1oc(C2(O)CC2)nc1C(F)F)N1CCc2[nH]cnc2[C@H]1c1nc2c(F)cccc2o1 [Example 215, (S)-(4-(difluoromethyl)-2-(1-hydroxycyclopropyl)oxazol-5-yl)(4-(4-fluorobenzo[d]oxazol-2-yl)-6,7-dihydro-1H-imidazo[4,5-c]pyridin-5(4H)-yl)methanone]
≤ 500 nM	Cc1cccc2oc([C@@H]3c4nc[nH]c4CCN3C(=O)c3cnco3)nc12 [Example 509, (S)-(4-(4-methylbenzo[d]oxazol-2-yl)-6,7-dihydro-1H-imidazo[4,5-c]pyridin-5(4H)-yl)(oxazol-5-yl)methanone]
≤ 500 nM	CC(C)(F)c1ncc(C(=O)N2CCc3[nH]cnc3[C@H]2c2nc3cc(F)ccc3o2)o1 [Example 13, (S)-(4-(5-fluorobenzo[d]oxazol-2-yl)-6,7-dihydro-1H-imidazo[4,5-c]pyridin-5(4H)-yl)(2-(2-fluoropropan-2-yl)oxazol-5-yl)methanone]
1000 to 5000 nM	c1ccc2oc([C@@H]3c4nc[nH]c4CN3c3nc4ccccc4o3)nc2c1 (single isomer, unassigned) [Example 931]

Same assay, conditions: A375 cells expressing R408W PAH; 24 hrs with compound, then 20 μM sepiapterin and 800 μM 13C9,15N-Phenylalanine for 4 hours; 13C-Tyrosine by LC-MS; average where tested multiple times

SMILES	AC50
Cc1nc(-c2ccccn2)sc1C(=O)N1CCc2[nH]cnc2C1c1nc2cc(F)ccc2o1 (stereo not drawn)	≥ 5000 nM
CNCc1ccc2c(C(=O)N3CCc4[nH]cnc4C3c3nc4cc(F)ccc4o3)cnn2c1 (stereo not drawn)	≥ 5000 nM
COCCOc1ccc2c(C(=O)N3CCc4[nH]cnc4C3c3nc4cc(F)ccc4o3)cnn2c1 (stereo not drawn)	≥ 5000 nM
CNC(C)(C)c1nc(C)c(C(=O)N2CCc3[nH]cnc3C2c2nc3cc(F)ccc3o2)o1 (stereo not drawn)	1000 to 5000 nM
O=C(c1cnn2cc(N3CCC(O)CC3)ccc12)N1CCc2[nH]cnc2C1c1nc2cc(F)ccc2o1 (stereo not drawn)	1000 to 5000 nM
Cc1ccc2nc(C3c4nc[nH]c4CCN3C(=O)c3nnc(C(C)(C)O)o3)oc2c1 (stereo not drawn)	1000 to 5000 nM
O=C(c1cnc(N2CCC(F)CC2)o1)N1CCc2[nH]cnc2C1c1nc2cc(F)ccc2o1 (stereo not drawn)	1000 to 5000 nM
O=C(c1cnn2cc(CCN3CC(F)C3)ccc12)N1CCc2[nH]cnc2C1c1nc2cc(F)ccc2o1 (stereo not drawn)	1000 to 5000 nM
Cc1nc([C@H](C)O)oc1C(=O)N1CCc2[nH]cnc2C1c1nc2cc(F)ccc2o1 (single isomer, unassigned)	1000 to 5000 nM
CC(C)(O)c1cc(C(=O)N2CCc3[nH]cnc3C2c2nc3ccc(F)cc3o2)on1 (stereo not drawn)	1000 to 5000 nM

Continued, values first:

AC50	SMILES
1000 to 5000 nM	COCCCc1ccc2c(C(=O)N3CCc4[nH]cnc4C3c3nc4cc(F)ccc4o3)cnn2c1 (stereo not drawn)
≥ 5000 nM	CC1(C)CN(C(=O)c2ocnc2C(F)F)C(c2nc3cc(F)ccc3o2)c2nc[nH]c21 (stereo not drawn)
≥ 5000 nM	CNCCc1ccc2c(C(=O)N3CCc4[nH]cnc4C3c3nc4cc(F)ccc4o3)cnn2c1 (stereo not drawn)
1000 to 5000 nM	Nc1ccc2c(C(=O)N3CCc4[nH]cnc4C3c3nc4cc(F)ccc4o3)cnn2c1 (stereo not drawn)
1000 to 5000 nM	CC1CN(C(=O)c2oc(C(C)(C)O)nc2C(F)F)C(c2nc3cc(F)ccc3o2)c2nc[nH]c21 (stereo not drawn)
1000 to 5000 nM	COCc1ncc(C(=O)N2CCc3[nH]cnc3C2c2nc3cc(F)ccc3o2)s1 (stereo not drawn)
1000 to 5000 nM	O=C(CCc1cncs1)N1CCc2[nH]cnc2C1c1nc2ccc(F)cc2o1 (stereo not drawn)
